For one data set, the system named is mice. As to the kind of experiment: protection against aggressions of the hypoxic type (lethality induced by oxydipentonium chloride) in mice. Format: in vivo. The conditions noted are these: 1 h, mouse, intraperitoneal, one hour before curarizer, read-out: Proportion of survivors, treated animals; for responders at 10 µM, 10 µmol/kg: 0.01 mM/kg (B 2.6, G 2.6, H 2.4 mg/kg), control B 1/10, G 1/10, H 2/10; for responders at 100 µM, 100 µmol/kg: 0.1 mM/kg (F 24, G 25.5, H 24, I 30, J 21, K 23, L 23 mg/kg), control 1/10, F 0/10. The method, then: Protection against aggressions of the hypoxic type is shown by a reduction of the lethality induced by a curarizer, the duration of action of which is short, namely oxydipentonium chloride (Brevatonal). At the doses used, this curarizer brings about a respiratory depression which, in turn, brings about a hypoxi-hypercapnic syndrome. A compound capable of protecting the brain during this brief period of hypoxia ensures survival. The compounds are administered to groups of 10 mice one hour before the injection of the curarizer; in a parallel test, a control group of 10 mice are given physiological salt solution before the curarizer. This test has also been developed in our laboratories (see, for the principle of this test, S. LEVIS et al.; Arch. Int. Pharmacodyn. Therap, 93,(1953),1,46-54).
Intraperitoneal administration of compounds of general formula (I), namely, products A, B, F, G, H, I, J, K, L, gives the results shown in Table III: […]

A short description of a further data set: toxicity, LD50 in rat. The conditions noted are these: in vivo, intravenous. The text has this: The tested compounds have a remarkably low toxicity. Table V gives the toxicities, after intravenous administration, of some of the compounds of the present invention: […]
Another data set concerns rats. As to the kind of experiment: active avoidance test, memory retention (paw pressure withdrawal) in rats. Format: in vivo, rat. Conditions: for minimal effective dose: sc, read-out: Active dose (minimum dose which reduces the stimulus to below 11 graduations). An excerpt:
(A) The action on mnemic processes is first shown by the ability of the compounds to improve a type of memory retention in rats. The principle of the active avoidance test (see M. GREINDL and S. PREAT, Arch. Int. Pharmacodyn. Therap. 223,(1976),(1),168-171) developed in our laboratories and used for this purpose may be described as follows: the reaction of withdrawal of a rat's paw when subjected to an increasing and measured pressure is observed. The pressure at which the withdrawal reaction takes place is called the reaction threshold. This threshold is expressed by the number of graduations of the scale of the apparatus used (Analgesy meter UGO BASILE - Milano) and thus corresponds to the minimum pressure which brings about withdrawal when applied to the animal's paw. It is read directly from the scale of the apparatus used.
Inversely, animals treated with a substance having a positive effect on the mnemic processes (for example, piracetam) show a significant degree of retention: the stimulus at which the rats react by a reflex of avoidance is statistically lower than that of the control animals. A minimum of 20 rats are used per test (10 treated rats and 10 control rats) and the active dose is defined as the minimum dose which reduces the stimulus to below 11 graduations.
Subcutaneous administration of compounds of general formula (I), namely compounds A, G, H, I, J, K, L, N, O, P, Q, R, V, W, give, under these conditions, the effects indicated in Table I below.

Data on eleven molecules can be found in patent publication US4162325A, “N-substituted lactams” (UCB, Societe Anonyme, priority 1976, dated 1979).

“And” between values parts separate entries of the source, which are not always exact repeats. Equal entries are not always repeated. Where two headings read alike, the source gives them in different places.

As for `CCCCNC(=O)CNC(=O)CN1CCCC1=O` [Compound B, N-n-Butyl-2-(2-oxo-1-pyrrolidineacetamido)-acetamide], the responders at 10 µM, 10 µmol/kg with mice came to 60%. For the same molecule, the responders at 32 µM, 8.2 mg/kg with mice (ip, 0.032 mM/kg (B 8.2 mg/kg), control 1/10) was found to be 80%. Besides, the LD50 in “toxicity, LD50 in rat” was > 4000 µmol/kg and > 1020 mg/kg.

For the molecule `CC(C)NC(=O)CNC(=O)CN1CCCC1=O` [Compound F, N-isopropyl-2-(2-oxo-1-pyrrolidineacetamido)-acetamide], in the data set with mice, the responders at 100 µM, 100 µmol/kg is 40%. Besides, in “toxicity, LD50 in rat”, the LD50 was > 3000 µmol/kg and > 723 mg/kg.

For the molecule `CCC(C(=O)NCC(N)=O)N1C(=O)CCC1(C)C` (stereo not drawn) [Compound G, 2-(alpha-ethyl-5,5-dimethyl-2-oxo-1-pyrrolidineacetamido)-acetamide], in the data set on mice, the responders at 10 µM, 10 µmol/kg is 40% and the responders at 100 µM, 100 µmol/kg turned out to be 60%. In addition, the LD50 in the data set “toxicity, LD50 in rat” is > 2800 µmol/kg and > 714 mg/kg. In addition, in the data set with rats (Rattus norvegicus, 24 h), the minimal effective dose was 0.51 mg/kg and 2 µmol/kg. For the same molecule, the “activity compared with piracetam in the active avoidance test” value (“activity compared with piracetam” for short) in the data set with rats (rat, subcutaneous) is listed as “superior to that of piracetam”.

`NC(=O)CNC(=O)C1(N2CCCC2=O)CC1` [Compound L, 2-[1-(2-oxo-pyrrolidino)-cyclopropanecarboxamido]-acetamide]: in the data set on mice, the responders at 100 µM, 100 µmol/kg stood at 80%. Further, in the data set on rats (Rattus norvegicus, 24 h), the minimal effective dose was 0.23 mg/kg and 1 µmol/kg. The “activity compared with piracetam” value in the data set with rats (rat, subcutaneous) is “superior to that of piracetam”.

Take `CN(CC(N)=O)C(=O)CN1CCCC1=O` [Compound N, 2-(N-methyl-2-oxo-1-pyrrolidineacetamido)-acetamide]: the minimal effective dose with rats (Rattus norvegicus, 24 h) is 2.13 mg/kg and 10 µmol/kg. For the same molecule, the “activity compared with piracetam” value in the data set with rats (rat, subcutaneous) was “superior to that of piracetam”.

On to `CNC(=O)CN(C)C(=O)CN1CCCC1=O` [Compound O, N-methyl-2-(N-methyl-2-oxo-1-pyrrolidineacetamido)-acetamide], for which, in the data set with rats (Rattus norvegicus, 24 h), the minimal effective dose is 2.27 mg/kg and 10 µmol/kg. For the same molecule, the “activity compared with piracetam” value with rats (rat, subcutaneous) is on record as “superior to that of piracetam”.

In the case of `CN(C)C(=O)CN(C)C(=O)CN1CCCC1=O` [Compound P, N,N-dimethyl-2-(N-methyl-2-oxo-1-pyrrolidineacetamido)-acetamide], the minimal effective dose in the data set with rats (Rattus norvegicus, 24 h) is 2.41 mg/kg and 10 µmol/kg. Further, the “activity compared with piracetam” value with rats (rat, subcutaneous) is “superior to that of piracetam”.

Consider `CC(NC(=O)CN1CCCC1=O)C(N)=O` (stereo not drawn) [Compound Q, 2-methyl-2-(2-oxo-1-pyrrolidineacetamido)-acetamide], for which the minimal effective dose with rats (Rattus norvegicus, 24 h) is 2.13 mg/kg and 10 µmol/kg. Moreover, the “activity compared with piracetam” value in the data set on rats (rat, subcutaneous) was “superior to that of piracetam”.

With `NC(=O)C(NC(=O)CN1CCCC1=O)c1ccccc1` (stereo not drawn) [Compound R, 2-(2-oxo-1-pyrrolidineacetamido)-2-phenylacetamide], in the data set with rats (Rattus norvegicus, 24 h), the minimal effective dose was 2.75 mg/kg and 10 µmol/kg. The “activity compared with piracetam” value with rats (rat, subcutaneous) is on record as “superior to that of piracetam”.

`NC(=O)CNC(=O)CN1CCCCCC1=O` [Compound V, 2-(hexahydro-2-oxo-1H-azepine-1-acetamido)-acetamide]: the “activity compared with piracetam” value with rats (rat, subcutaneous) was “superior to that of piracetam”. Further, the minimal effective dose with rats (rat, subcutaneous, tested 24 hours later) is 2.27 mg/kg and 10 µmol/kg.

On to `CCCCC(C(=O)NCC(N)=O)N1CCCC1=O` (stereo not drawn) [Compound W, 2-(alpha-n-butyl-2-oxo-1-pyrrolidineacetamido)-acetamide], for which, in the data set with rats (Rattus norvegicus, 24 h), the minimal effective dose is 2.55 mg/kg and 10 µmol/kg. Also, in the data set with rats (rat, subcutaneous), the “activity compared with piracetam” value is recorded as “superior to that of piracetam”.
